Results published in PMC9586895, “Esomeprazole and apixaban pharmacokinetic interactions in healthy rats” (Heliyon, 2022).
Like-named read-outs stand apart in the source and are kept apart here.

Tests used:
[1] = cited from earlier work
[2] = Pharmacokinetic study in Wistar rats, plasma levels by HPLC/MS, non-compartmental analysis; format: in vivo; conditions: for bioavailability: read-out: absolute bioavailability (F); for AUC(0-t): read-out: AUC0–24; for Cpmax: rat plasma
Procedure: The column is ACE C8 (50 ∗ 4.6) mm, particle size 5 μm (Supercell), and AP 13C as the internal standard. […] The chromatographic conditions of Ap and ESO analysis were as follows: The HPLC system: […] Detector: API 4000, Applied Biosystems, MDS SCIEX; computer system: […] Data Management Software: […] Column: ACE C8, (50 ∗ 4.6) mm, particle size 5 μm; Flow Rate: 650 μL/min; Injection Volume: 1 μL; […] Expected retention time: […] The ethical committee approved the study protocol of the High Research Council, Faculty of Pharmacy of the […] University, and the study was carried out in the animal house of the university. […] They were divided into five groups, each of 6 rats. Group 1 ([…].V sterile solution (5 mg/kg) in D.W containing 5% ethanol. Group 2 (G2) was given AP as sterile I.V solution (125 mcg/kg) in D.W containing 10% ethanol. […] All rats fasted overnight with access only to water. […] Blood samples were drawn into an EDTA tube and immediately centrifuged at 14,000 rpm for 7 min. Plasma was obtained and placed into a labeled Eppendorf tube and stored at […] until analysis. After constructing the Cp vs. t profile by plotting the average plasma concentration of each drug in ng/mL vs. time in hours, the pharmacokinetics was performed using Non-Compartmental Analysis (NCA) using WinNonlin® (Version 8.1).

[3] = tested on: plasma protein, mainly albumin; conditions: cited from earlier work
P-gp = tested on: P-gp; parameters: method as in PMID 11770010; conditions: cited from earlier work
[4] = IV (ESO 5 mg/kg; AP 125 mcg/kg)
[5] = Wistar, rat, plasma, iv, IV (ESO 5 mg/kg; AP 125 mcg/kg)
[6] = Wistar, rat, plasma, iv, IV (ESO 5 mg/kg; AP 125 mcg/kg), NCA, read-out: Kel (app) (converted)
[7] = Wistar, rat, plasma, iv, read-out: Vd
[8] = Wistar, rat, plasma, po, ESO 5 mg/kg + AP 250 mcg/kg in combination
[9] = Wistar, rat, plasma, po, ESO 5 mg/kg + AP 250 mcg/kg in combination, NCA, read-out: Kel (app) (converted)
[10] = Wistar, rat, plasma, po, given alone (ESO 5 mg/kg; AP 250 mcg/kg)
[11] = Wistar, rat, plasma, po, given alone (ESO 5 mg/kg; AP 250 mcg/kg), NCA, read-out: Kel (app) (converted)
[12] = oral, ESO 5 mg/kg + AP 250 mcg/kg in combination
[13] = oral, given alone (ESO 5 mg/kg; AP 250 mcg/kg)

| SMILES | AUMC0–24 [2, 4] [ng.h^2/mL] | AUMC0–∞ [2, 4] [ng.h^2/mL] | clearance ([2]; Wistar, rat, plasma, iv) [mL/min] | AUC(0-inf) [2, 5] [ng·h/mL] | MRT inf [2, 5] [h] | half-life [2, 5] [h] | k el [2, 6] [s⁻¹] | AUC(0-t) [2, 5] [ng·h/mL] | Vd [2, 7] [L] | AUC(0-inf) [2, 8] [ng·h/mL] | MRT inf [2, 8] [h] | Tmax [2, 8] [h] | half-life [2, 8] [h] | k el [2, 9] [s⁻¹] | AUC(0-t) [2, 8] [ng·h/mL] | AUC(0-inf) [2, 10] [ng·h/mL] | MRT inf [2, 10] [h] | Tmax [2, 10] [h] | k el [2, 11] [s⁻¹] | AUC(0-t) [2, 10] [ng·h/mL] | other results |
| --- | --- | --- | --- | --- | --- | --- | --- | --- | --- | --- | --- | --- | --- | --- | --- | --- | --- | --- | --- | --- | --- |
| COc1ccc(-n2nc(C(N)=O)c3c2C(=O)N(c2ccc(N4CCCCC4=O)cc2)CC3)cc1 [AP, 1-(4-methoxyphenyl)-7-oxo-6-[4-(2-oxopiperidin-1-yl)phenyl]-4,5-dihydropyrazolo [3,4-c]pyridine-3-carboxamide] | 8164.8 ± 78.3 | 28975.07 ± 2364 | 0.3 ± 0.08 | 1340 ± 120 | 21.5 ± 1.5 | 14.9 ± 1.8 | 1.29e-05 | 894 ± 80.6 | 0.4 ± 0.09 | 1560 ± 78 | 14 ± 0.21 | 1 ± 0.32 | 9.6 ± 0.144 | 1.99e-05 | 1270 ± 63.3 | 1540 ± 54 | 24 ± 0.24 | 6 ± 1.09 | 1.17e-05 | 959 ± 38.4 | excreted in the urine as unchanged drug [1]: 25%; excreted into the bile as unchanged drug [1]: 56%; share of total absorption in the distal part and the descending colon [1]: 55%; volume of distribution ([1]; mainly extracellular fluids ref 14): 21 L; bioavailability ([1]; no noticeable effect of food ref 12): around 50%; bioavailability ([2]; Wistar, rat, plasma, 250 mcg/kg, oral vs IV, drug given alone, F=AUCoral/AUCiv∙Doseiv/Doseoral): 42 ± 1%; half-life [2, 10]: 16.6 ± 0.99 h; AUMC0–24 [2, 12]: 10320.5 ± 516 ng.h^2/mL; AUMC0–∞ [2, 12]: 21710.2 ± 215.1 ng.h^2/mL; Vd [2, 12]: 2.1 ± 0.015 L; Cpmax [2, 12]: 98.6 ± 12.6 ng/mL; AUMC0–24 [2, 13]: 9517 ± 475.8 ng.h^2/mL; AUMC0–∞ [2, 13]: 37101 ± 742.2 ng.h^2/mL; Cl [2, 13]: 0.54 ± 0.03 mL/min; Vd [2, 13]: 0.779 ± 0.032 L; Cpmax [2, 13]: 57.2 ± 5.3 ng/mL; bound to plasma protein ([3]; mainly albumin ref 14): 87–90% |
| COc1ccc2[nH]c([S+]([O-])Cc3ncc(C)c(OC)c3C)nc2c1 (stereo not shown) [ESO, 5-methoxy-2-{[(4-methoxy-3,5-dimethylpyridin-2-yl)methyl]sulfinyl}-1H-benzimidazole] | 35805 ± 826 | 40322.6 ± 1256 | 3.7 ± 0.7 | 5450 ± 118 | 7.4 ± 0.95 | 4.8 ± 0.8 | 3.94e-05 | 5120 ± 120 | 1.5 ± 0.15 | 3410 ± 45.9 | 8.6 ± 0.13 | 4 ± 0.55 | 5.9 ± 0.236 | 3.22e-05 | 3250 ± 160 | 4510 ± 226 | 6.4 ± 0.128 | 2 ± 0.156 | 4.08e-05 | 4380 ± 218 | volume of distribution ([1]; adults ref 6, 7): 16 to 18 L; bioavailability ([1]; after 20 or 40 mg delayed-release tablets ref 6, 7): about 90%; half-life ([2]; Wistar, rat, in vivo, po): 4.7 ± 0.14 h; bioavailability ([2]; Wistar, rat, plasma, oral): 62 ± 1.5%; k el ([2]; Wistar, rat, plasma, po, 5 mg/kg, oral ESO 5 mg/kg alone, read-out: elimination rate constant calculated from late concentrations of the plasma level time profile (linear model) (converted)): 4.53e-05 s⁻¹; decrease of AUC when given with AP ([2]; oral ESO 5 mg/kg with AP 250 mcg/kg vs alone): 25%; extrapolated area to infinity as share of the total area ([2]; oral ESO alone): about 13%; extrapolated area to infinity as share of the total area ([2]; oral ESO in combination with AP): 20%; AUMC0–24 [2, 12]: 23544.9 ± 309 ng.h^2/mL; AUMC0–∞ [2, 12]: 29430.9 ± 1473 ng.h^2/mL; Cl [2, 12]: 4.8 ± 0.14 mL/min; Vd [2, 12]: 2.4 ± 0.09 L; Cpmax [2, 12]: 387.9 ± 23.5 ng/mL; AUMC0–24 [2, 13]: 24658.6 ± 206.5 ng.h^2/mL; AUMC0–∞ [2, 13]: 29094.1 ± 1454.7 ng.h^2/mL; Vd [2, 13]: 1.41 ± 0.07 L; Cpmax [2, 13]: 695.9 ± 25.8 ng/mL; plasma protein binding ([3]; mainly to albumin ref 6, 7): about 97%; P-gp inhibitor strength (P-gp): moderate to potent P-gp inhibitor |
